Results: patent publication US20050164976A1, “Combination of a cdk inhibitor and 5-fu for the tratment of cancer” (Cyclacel Limited, priority 2002, published 2005)

How the values were obtained:
HT29 cells [1] = test: cells; settings: Homo sapiens, HT-29
Source text: Cells were washed in media to inactivate trypsin before reseeding or analysis.

HT29 cells [2] = test: analysis of cell cycle distribution by flow cytometry; type: cell-based, human; settings: single agent, 48 hours; roscovitine 20 μM and 40 μM; 5-FU 0.5 μM and 1 μM; dose dependent
HT29 cells [3] = test: activated caspase-3 assay; type: cell-based, human; settings: single agent, dose dependent
MCF7 cells = test: cells; settings: Homo sapiens
Experimental: MCF7 cells were seeded at 3,000/well in 96 well plates. Cell were allowed to settle overnight, and medium replaced with drug-containing medium the next day. Nine different drug treatments were tested, in triplicate, in each plate.

HT29 cells [4] = settings: single agent; 40 μM roscovitine; 1 μM 5-FU
Experimental: HT29 cells were seeded and treated with drug in the same way as for the determination of cell cycle distribution. After 24 hours, media was replaced with that containing 10 μM BrdU and incubated for 30 minutes. Detached cells were harvested, plates were washed twice in PBS and adherent cells harvested by trypsinisation. Adherent and detached cells were pooled, washed in PBS, fixed in ice cold 70% v/v ethanol and stored at 4° C. Cells were washed twice in PBS+1% BSA and treated with 2M HCl for 20 minutes, followed by a further three washes in PBS. Cells were pelleted and 2 μl of anti-BrdU antibody (Pharmingen) added to the pellet. […] After incubation at room temperature protected from light for 20 minutes, samples were analysed by flow cytometry.
A Becton Dickinson LSR flow cytometer was used for these studies, in accordance with the manufacturers recommendations. […] Where used, activated caspase-3 and BrdU positive cells were designated as such on the basis of green fluorescence (530±28 nm), acquired on a logarithmic scale. Red fluorescence (575±26 nm) was acquired on a linear scale and pulse width analysis was used to exclude cell doublets and aggregates from the analysis. Cells with a DNA content of between 2n and 4n were designated as being in G1, S or G2/M phases of the cell cycle, as defined by the level of red fluorescence. […]

[5] = tested on: human mammary cancer xenograft MAXF 857; settings: 5FU alone at the concentrations used in the combination
Experimental: Cells were passed through sieves of 200 μm and 50 μm mesh size and washed twice with sterile PBS-buffer (Life Technologies). The percentage of viable cells was determined in a Neubauer-hemocytometer using trypan blue exclusion.
The clonogenic assay was performed in a 24-well format according to a modified two-layer soft agar assay introduced by Hamburger et al [Hamburger, A. W. & S. E. Salmon. […] The bottom layer consisted of 0.2 ml/well of Iscove's Modified Dulbecco's Medium (supplemented with 20% (v/v) fetal calf serum and 0.01% (v/v) gentamicin) and 0.75% (w/v) agar. 5·10^4 cells were added to 0.2 ml of the same culture medium supplemented with 0.4% (w/v) agar and plated in 24-multiwell dishes onto the bottom layer. Cytostatic drugs were applied by continuous exposure (drug overlay) in 0.2 ml culture medium 24 hours after seeding in the cells. Every dish included six control wells and drug-treated groups in triplicate at 6 concentrations. […] Cultures were incubated at 37° C. and 7.5% CO2 in a humidified atmosphere for 8-20 days and monitored closely for colony growth using an inverted microscope. Within this period, in vitro tumor growth led to the formation of colonies with a diameter of >50 μm. At the time of maximum colony formation, counts were performed with an automatic image analysis system (OMNICON FAS IV, Biosys GmbH). […]

## O=c1[nH]cc(F)c(=O)[nH]1 [5-FU, 5-Fluorouracil]
HT29 cells [1]
  IC50: 1 µM
HT29 cells [2]
  effect on cell cycle distribution: accumulation of cells in S phase
HT29 cells [3]
  activation of caspase-3: albeit to a lesser extent
MCF7 cells
  IC50: 8 µM
HT29 cells [4]
  number of cells incorporating BrdU: 64.3%
[5]
  effect on cell growth: no effect on cell growth

## CC[C@H](CO)Nc1nc(NCc2ccccc2)c2ncn(C(C)C)c2n1 [roscovitine, 6-benzylamino-2-[(R)-1-ethyl-2-hydroxyethylamino]-9-isopropylpurine]
HT29 cells [2]
  effect on cell cycle distribution: accumulation of cells in G2/M
HT29 cells [3]
  activation of caspase-3: induces activation of caspase-3
HT29 cells [4]
  number of cells incorporating BrdU: 3.8%
